Test results as given in ChEMBL document CHEMBL5096178, “Synthesis and Biological Evaluation of Natural-Product-Inspired, Aminoalkyl-Substituted 1-Benzopyrans as Novel Antiplasmodial Agents” (J Med Chem, 2021).
One block for each compound: values may come before it.

Legend:
[1] = tested on: Plasmodium falciparum; test: Inhibition of Plasmodium falciparum DHODH using DCIP as substrate at 10 uM relative to control
[2] = tested on: Plasmodium falciparum; test: Antiprotozoal activity against Chloroquine-resistant Plasmodium falciparum K1 assessed as parasite growth inhibition; format: functional, organism-based
[3] = tested on: Plasmodium falciparum; test: Inhibition of Plasmodium falciparum DHODH using DCIP as substrate at 50 uM relative to control
[4] = tested on: Plasmodium falciparum; test: Inhibition of Plasmodium falciparum DHODH assessed as residual activity using DCIP as substrate at 10 uM relative to control
[5] = tested on: Plasmodium falciparum; test: Inhibition of Plasmodium falciparum DHODH assessed as residual activity using DCIP as substrate at 50 uM relative to control
[6] = Displacement of [3H]-(+)-pentazocine from Sigma1 receptor derived from pig brain assessed as inhibition constant measured after 120 mins by scintillation counter analysis; format: tissue-based, Sus scrofa
[7] = tested on: Plasmodium falciparum; test: Antiprotozoal activity against erythrocytic stage Plasmodium falciparum NF54 assessed as parasite growth inhibition incubated for 48 hrs by [3H]hypoxanthine incorporation assay; format: functional, organism-based
[8] = tested on: Trypanosoma brucei rhodesiense; test: Antiprotozoal activity against Trypanosoma brucei rhodesiense STIB 900 bloodstream trypomastigote assessed as parasite growth inhibition incubated for 70 hrs by resazurin dye based assay; format: functional, organism-based; conditions: STIB 900, 70 h
[9] = tested on: Trypanosoma cruzi; test: Antiprotozoal activity against Trypanosoma cruzi Tulahuen C4 intracellular amastigote infected in rat L6 cells assessed as parasite growth inhibition incubated for 96 hrs in presence of CPRG/Nonidet by photometry; format: functional, organism-based; conditions: Tulahuen C4, L6, 96 h
[10] = tested on: Leishmania donovani; test: Antiprotozoal activity against Leishmania donovani MHOM/ET/67/L82 axenic amastigote assessed as parasite growth inhibition incubated for resazurin dye based fluorometry; format: functional, organism-based
[11] = Cytotoxicity against rat L6 cells assessed as cell growth inhibition incubated for 70 hrs by Alamar Blue staining based […]; format: toxicity
[12] = Selectivity index, ratio of IC50 for rat L6 cells to IC50 for erythrocytic stage Plasmodium falciparum NF54; format: toxicity; conditions: read-out: Ratio IC50
[13] = Selectivity index, ratio of IC50 for rat L6 cells to IC50 for Trypanosoma brucei rhodesiense STIB 900 bloodstream trypomastigote; format: toxicity; conditions: read-out: Ratio IC50
[14] = Selectivity index, ratio of IC50 for rat L6 cells to IC50 for Trypanosoma cruzi Tulahuen C4 intracellular amastigote infected in rat L6 cells; format: toxicity, cell-based; conditions: read-out: Ratio IC50
[15] = Selectivity index, ratio of IC50 for rat L6 cells to IC50 for Leishmania donovani MHOM/ET/67/L82 axenic amastigote; format: toxicity; conditions: read-out: Ratio IC50
[16] = Displacement of [14C]lactate from Plasmodium falciparum FNT expressed in Saccharomyces cerevisiae incubated for 24 hrs by liquid scintillation counter method
[17] = tested on: Plasmodium falciparum; test: Antiplasmodial activity against Plasmodium falciparum 3D7 assessed as parasite growth inhibition incubated for 24 hrs by FACS analysis; format: functional, organism-based
[18] = tested on: Leishmania donovani; test: Antiprotozoal activity against Leishmania donovani MHOM-ET-67/L82 axenic amastigotes assessed as parasite growth inhibition incubated for 70 hrs by resazurin dye based inverted microscopy; conditions: MHOM-ET-67/L82, 70 h
[19] = tested on: Plasmodium falciparum; test: Potency index, ratio of Chloroquine IC50 to test compound IC50 for Chloroquine-resistant Plasmodium falciparum K1 assessed as parasite growth inhibition; format: functional

SMILES: C[C@@H](NCc1ccccc1)c1cc2c(cc1O)OC(C)(C)C=C2
- inhibition [1]: 3%
- IC50 [2]: 0.02 µM
- inhibition [3]: 1%
- Activity [4]: 110%
- Activity [5]: 91%

SMILES: CC1(C)CCc2cc(C(O)CNCc3ccccc3)c(O)cc2O1 (stereo not drawn)
- IC50 [7]: 0.1 µM
- IC50 [8]: 6.4 µM
- IC50 [9]: 48 µM
- IC50 [10]: 54 µM
- IC50 at 70 h [11]: 46 µM
- selectivity ratio [12]: 460
- selectivity ratio [13]: 7
- selectivity ratio [14]: 1
- selectivity ratio [15]: 0.9

SMILES: C[C@H](NCc1ccccc1)c1cc2c(cc1O)OC(C)(C)C=C2
- inhibition [1]: 5%
- IC50 [2]: 0.01 µM
- inhibition [3]: 1%
- Activity [4]: 116%
- Activity [5]: 96%

SMILES: COc1ccc(C(=O)/C=C(\O)C(F)(F)C(F)(F)F)c(O)c1
- IC50 [16]: 0.17 µM
- IC50 [17]: 0.14 µM

SMILES: CCCCCCCCCCCCCCCCOP(=O)([O-])OCC[N+](C)(C)C [MILTEFOSINE]
- IC50 [18]: 0.471 µM

SMILES: CC1(C)C=Cc2cc(CNCCc3ccccc3)c(O)cc2O1
- IC50 [7]: 0.076 µM
- IC50 [8]: 0.67 µM
- IC50 [9]: 28 µM
- IC50 [10]: 105 µM
- IC50 at 70 h [11]: 46 µM
- selectivity ratio [12]: 605
- selectivity ratio [13]: 69
- selectivity ratio [14]: 2
- selectivity ratio [15]: 0.4

SMILES: CC1(C)CCc2c(ccc(CNCCc3ccccc3)c2O)O1
- IC50 [7]: 0.01 µM
- IC50 [8]: 6.5 µM
- IC50 [9]: 53 µM
- IC50 [10]: 141 µM
- IC50 at 70 h [11]: 36 µM
- selectivity ratio [12]: 3600
- selectivity ratio [13]: 6
- selectivity ratio [14]: 0.7
- selectivity ratio [15]: 0.3

SMILES: CC(NCc1ccccc1)c1cc2c(cc1O)OC(C)(C)C=C2 (racemic)
- IC50 [2]: 0.026 µM
- Ratio IC50 [19]: 26

SMILES: CC(NCCCc1ccccc1)c1cc2c(cc1O)OC(C)(C)C=C2 (racemic)
- inhibition [1]: 3%
- IC50 [2]: 0.886 µM
- Ratio IC50 [19]: 13
- inhibition [3]: 4%
- Activity [4]: 116%
- Activity [5]: 98%

SMILES: CC1(C)CCc2cc(CNCc3ccccc3)c(O)cc2O1
- IC50 [7]: 0.099 µM
- IC50 at 70 h [11]: 22 µM
- selectivity ratio [12]: 222

SMILES: CC1(C)CCc2cc(CNCCc3ccccc3)c(O)cc2O1
- IC50 [7]: 0.081 µM
- IC50 at 70 h [11]: 43 µM
- selectivity ratio [12]: 531

Now from value to compound, other results behind:

- Ki [6]: 0.0024 µM
SMILES: COCOc1cc2c(cc1CCCNCc1ccccc1)CCC(C)(C)O2

- IC50 [8]: 3.4 µM
- IC50 [9]: 18 µM
SMILES: CC1(C)CCc2c(ccc(CNCCCCc3ccccc3)c2O)O1
- IC50 [7]: 0.18 µM
- IC50 [10]: 42 µM
- IC50 at 70 h [11]: 15 µM
- selectivity ratio [12]: 83
- selectivity ratio [13]: 4
- selectivity ratio [14]: 0.8
- selectivity ratio [15]: 0.4

- IC50 [8]: 1.4 µM
- IC50 [9]: 9.5 µM
SMILES: CC1(C)CCc2cc(CNCc3ccccc3)c3c(c2O1)CCC(C)(C)O3
- IC50 [7]: 0.47 µM
- IC50 [10]: 13 µM
- IC50 at 70 h [11]: 5.6 µM
- selectivity ratio [12]: 12
- selectivity ratio [13]: 4
- selectivity ratio [14]: 0.6
- selectivity ratio [15]: 0.4

- IC50 [8]: 0.54 µM
- IC50 [9]: 5.4 µM
SMILES: CC1(C)CCc2cc(CNCCCCc3ccccc3)c3c(c2O1)CCC(C)(C)O3
- IC50 [7]: 0.21 µM
- IC50 [10]: 4.9 µM
- IC50 at 70 h [11]: 3.2 µM
- selectivity ratio [12]: 15
- selectivity ratio [13]: 6
- selectivity ratio [14]: 0.6
- selectivity ratio [15]: 0.7

- IC50 [8]: 0.83 µM
- IC50 [9]: 5.2 µM
SMILES: CC1(C)CCc2cc(CNCCCc3ccccc3)c3c(c2O1)CCC(C)(C)O3
- IC50 [7]: 0.37 µM
- IC50 [10]: 11 µM
- IC50 at 70 h [11]: 2.6 µM
- selectivity ratio [12]: 7
- selectivity ratio [13]: 3
- selectivity ratio [14]: 0.5
- selectivity ratio [15]: 0.2

- IC50 [8]: 22 µM
- IC50 [9]: 57 µM
SMILES: CC1(C)CCc2c(ccc(CNCc3ccccc3)c2O)O1
- IC50 [7]: 0.053 µM
- IC50 [10]: 52 µM
- IC50 at 70 h [11]: 60 µM
- selectivity ratio [12]: 1130
- selectivity ratio [13]: 3
- selectivity ratio [14]: 1
- selectivity ratio [15]: 1

- IC50 [8]: 1.01 µM
- IC50 [9]: 28 µM
SMILES: CC1(C)C=Cc2cc(CNCCCc3ccccc3)c(O)cc2O1
- IC50 [7]: 0.081 µM
- IC50 [10]: 43 µM
- IC50 at 70 h [11]: 28 µM
- selectivity ratio [12]: 346
- selectivity ratio [13]: 28
- selectivity ratio [14]: 1
- selectivity ratio [15]: 0.7

- IC50 [8]: 0.7 µM
- IC50 [9]: 9.1 µM
SMILES: CC1(C)CCc2cc(CNCCc3ccccc3)c3c(c2O1)CCC(C)(C)O3
- IC50 [7]: 0.24 µM
- IC50 [10]: 12 µM
- IC50 at 70 h [11]: 3.5 µM
- selectivity ratio [12]: 15
- selectivity ratio [13]: 5
- selectivity ratio [14]: 0.4
- selectivity ratio [15]: 0.3

- IC50 [8]: 3.4 µM
- IC50 [9]: 31 µM
SMILES: CC1(C)CCc2c(ccc(CNCCCc3ccccc3)c2O)O1
- IC50 [7]: 0.15 µM
- IC50 [10]: 52 µM
- IC50 at 70 h [11]: 27 µM
- selectivity ratio [12]: 180
- selectivity ratio [13]: 8
- selectivity ratio [14]: 0.9
- selectivity ratio [15]: 0.5

- IC50 [8]: 0.46 µM
- IC50 [9]: 13 µM
SMILES: CC1(C)CCc2cc(CNCCCCc3ccccc3)c(O)cc2O1
- IC50 [7]: 0.07 µM
- IC50 [10]: 138 µM
- IC50 at 70 h [11]: 15 µM
- selectivity ratio [12]: 214
- selectivity ratio [13]: 33
- selectivity ratio [14]: 1
- selectivity ratio [15]: 0.1

- IC50 [8]: 1.09 µM
- IC50 [9]: 17 µM
SMILES: CC1(C)C=Cc2cc(CNCCCCc3ccccc3)c(O)cc2O1
- IC50 [7]: 0.079 µM
- IC50 [10]: 25 µM
- IC50 at 70 h [11]: 19 µM
- selectivity ratio [12]: 241
- selectivity ratio [13]: 17
- selectivity ratio [14]: 1
- selectivity ratio [15]: 0.8

- IC50 [8]: 5.3 µM
- IC50 [9]: 28 µM
SMILES: CC1(C)CCc2cc(C(O)CNCCCc3ccccc3)c(O)cc2O1 (stereo not drawn)
- IC50 [7]: 0.017 µM
- IC50 [10]: 36 µM
- IC50 at 70 h [11]: 25 µM
- selectivity ratio [12]: 1470
- selectivity ratio [13]: 5
- selectivity ratio [14]: 0.9
- selectivity ratio [15]: 0.7

- IC50 [8]: 4.6 µM
- IC50 [9]: 15 µM
- Ki [6]: 0.0048 µM
SMILES: CC1(C)CCc2cc(CCCNCc3ccccc3)c(O)cc2O1
- IC50 [7]: 0.98 µM
- IC50 [10]: 15 µM
- IC50 at 70 h [11]: 24 µM
- selectivity ratio [12]: 24
- selectivity ratio [13]: 5
- selectivity ratio [14]: 2
- selectivity ratio [15]: 2

- IC50 [8]: 0.91 µM
- IC50 [9]: 534 µM
SMILES: CC1(C)C=Cc2cc(CNCc3ccccc3)c(O)cc2O1
- IC50 [7]: 0.16 µM
- IC50 [10]: 65 µM
- IC50 at 70 h [11]: 57 µM
- selectivity ratio [12]: 356
- selectivity ratio [13]: 63
- selectivity ratio [14]: 0.1
- selectivity ratio [15]: 0.9
